Patent US20260200920A1, “SUBSTITUTED AMINOPYRIDINE COMPOUNDS FOR USE AS AKT1 INHIBITORS” (Atavistik Bio, Inc., priority 2023, published 2026)
pIC50: −log10 of the molar value. Each block holds one compound with its values, some of them ahead of it.

Legend:
[1] = target: T1, human recombinant kinase full-length AKT1 E17K (Homo sapiens, UniProt P31749, E17K); test: AKT1 E17K kinase assay (TR-FRET, Lance); format: biochemical; conditions: 0.6 nM AKT1 E17K, 50 nM Ulight-CREBtide, either 50 μM ATP or 2 mM ATP, 60 min at RT
T1 construct: Purified human recombinant kinase full-length AKT1 E17K was expressed in insect cells; made in house; host or cells: insect cells
Procedure, shortened: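 Full-length AKT1 E17K from insect cells, PDPK1-activated, at 0.6 nM with 50 nM Ulight-CREBtide and 50 μM or 2 mM ATP, pH 7.5, 1% DMSO. Enzyme and compound preincubated 15 min, reaction run 60 min at RT; Eu-anti-phospho-CREB (Ser133) TR-FRET 665/620 ratio, 10-point curve, IC50 by 4-parameter fit.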

[2] = target: T2, human recombinant kinase full-length wildtype AKT1 (Homo sapiens, UniProt P31749); test: AKT1 kinase assay (wildtype, TR-FRET, Lance); format: biochemical; conditions: 0.6 nM wildtype AKT1, 50 nM Ulight-CREBtide, either 50 μM ATP or 2 mM ATP, 60 min at RT
T2 construct: Purified human recombinant kinase full-length wildtype AKT1 was expressed in insect cells; made in house; host or cells: insect cells
Procedure, shortened: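 Insect-cell-expressed full-length human AKT1, PDPK1-activated (0.6 nM), preincubated with compound 15 min at RT, then reacted 60 min at RT with 50 nM ULight-CREBtide and 50 μM or 2 mM ATP (pH 7.5, 1% DMSO). Phospho-CREBtide read by Eu-anti-phospho-Ser133 TR-FRET (665/620 ratio); IC50 from 10-point 4-parameter fit.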

T1 sequence (P31749 whole entry E17K): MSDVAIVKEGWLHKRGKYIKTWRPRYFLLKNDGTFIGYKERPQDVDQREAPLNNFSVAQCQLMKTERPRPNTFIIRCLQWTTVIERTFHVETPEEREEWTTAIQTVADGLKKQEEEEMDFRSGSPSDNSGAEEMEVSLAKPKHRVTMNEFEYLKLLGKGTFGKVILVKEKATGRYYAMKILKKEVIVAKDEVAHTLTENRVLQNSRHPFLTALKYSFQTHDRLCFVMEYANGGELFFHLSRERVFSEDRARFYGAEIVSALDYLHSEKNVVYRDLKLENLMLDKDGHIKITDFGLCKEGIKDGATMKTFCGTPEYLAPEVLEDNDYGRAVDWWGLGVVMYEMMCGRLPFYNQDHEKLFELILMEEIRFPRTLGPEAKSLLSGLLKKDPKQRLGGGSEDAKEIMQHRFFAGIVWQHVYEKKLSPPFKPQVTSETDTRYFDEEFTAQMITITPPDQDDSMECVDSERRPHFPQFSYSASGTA
T2 sequence (P31749 whole entry): as the sequence (P31749 whole entry E17K) above, with K17E counted along it

SMILES: Nc1ncccc1-c1nc2ccc(-c3ccccc3)nc2n1-c1ccc(C(=O)N2CC3(CC(C(=O)O)C3)C2)cc1 [Compound I-80, 2-(4-(2-(2-aminopyridin-3-yl)-5-phenyl-3H-imidazo[4,5-b]pyridin-3-yl)benzoyl)-2-azaspiro[3.3]heptane-6-carboxylic acid]
pIC50 [1]: ≤ 5.70
pIC50 [2]: > 4.70

SMILES: Nc1ncccc1-c1nc2ccc(-c3ccccc3)nc2n1-c1ccc(NC(=O)C23CCC(C(=O)O)(C2)C3)nc1 [Compound I-9, 4-((5-(2-(2-aminopyridin-3-yl)-5-phenyl-3H-imidazo[4,5-b]pyridin-3-yl)pyridin-2-yl)carbamoyl)bicyclo[2.1.1]hexane-1-carboxylic acid]
pIC50 [1]: 5.70 to 6.30
pIC50 [2]: > 4.70

SMILES: Nc1ncccc1-c1nc2cc(-c3ccc(F)cc3)cnc2n1-c1ccc(C2CN(C[C@H]3CC[C@H](C(=O)O)CC3)C2)cc1 [Compound I-67, (1r,4r)-4-((3-(4-(2-(2-aminopyridin-3-yl)-6-(4-fluorophenyl)-3H-imidazo[4,5-b]pyridin-3-yl)phenyl)azetidin-1-yl)methyl)cyclohexane-1-carboxylic acid]
pIC50 [1]: ≤ 5.70
pIC50 [2]: > 4.70

SMILES: Nc1ncccc1-c1nc2ccc(-c3ccccc3)nc2n1-c1ccc(C(=O)N[C@H]2CC[C@H](C(=O)O)CC2)cc1 [Compound I-16, (1r,4r)-4-(4-(2-(2-aminopyridin-3-yl)-5-phenyl-3H-imidazo[4,5-b]pyridin-3-yl)benzamido)cyclohexane-1-carboxylic acid]
pIC50 [1]: > 6.30
pIC50 [2]: > 4.70

SMILES: Cc1nc(-n2c(-c3cccnc3N)nc3ccc(-c4ccccc4)nc32)ccc1NC(=O)C1CC2(CC(C(=O)O)C2)C1 (stereo not drawn) [Compound I-126, 6-((6-(2-(2-aminopyridin-3-yl)-5-phenyl-3H-imidazo[4,5-b]pyridin-3-yl)-2-methylpyridin-3-yl)carbamoyl)spiro[3.3]heptane-2-carboxylic acid]
pIC50 [1]: ≤ 5.70
pIC50 [2]: > 4.70

SMILES: CC(C)Oc1ccc2nc(-c3cccnc3N)n(-c3ccc(NC(=O)[C@H]4CC[C@H](C(=O)O)CC4)nc3)c2c1 [Compound I-124, (1r,4r)-4-((5-(2-(2-aminopyridin-3-yl)-6-isopropoxy-1H-benzo[d]imidazol-1-yl)pyridin-2-yl)carbamoyl)cyclohexane-1-carboxylic acid]
pIC50 [1]: ≤ 5.70
pIC50 [2]: > 4.70

SMILES: Nc1ncccc1-c1nc2ccc(-c3ccccc3)nc2n1-c1ccc(C(=O)N[C@H]2CC[C@H](C(=O)O)CC2)nc1 [Compound I-19, (1r,4r)-4-(5-(2-(2-aminopyridin-3-yl)-5-phenyl-3H-imidazo[4,5-b]pyridin-3-yl)picolinamido)cyclohexane-1-carboxylic acid]
pIC50 [1]: ≤ 5.70
pIC50 [2]: > 4.70

Other lines, results leading:

pIC50 [1]: > 6.30
pIC50 [2]: > 4.70
SMILES: Cc1nc(NC(=O)N2CCC(C(=O)O)CC2)ccc1-n1c(-c2cccnc2N)nc2ccc(-c3ccccc3)nc21 [Compound I-182]

pIC50 [1]: > 6.30
pIC50 [2]: > 4.70
SMILES: Cc1nc(NCC2CC3(C2)CC(C(=O)O)C3)ccc1-n1c(-c2cccnc2N)nc2ccc(-c3ccccc3)nc21 (stereo not drawn) [Compound I-225]

pIC50 [1]: 5.70 to 6.30
pIC50 [2]: > 4.70
SMILES: Cc1nc(NC(=O)C2CCC(C(C)C(=O)O)C2)ccc1-n1c(-c2cccnc2N)nc2ccc(-c3ccccc3)nc21 (stereo not drawn) [Compound I-132, 2-(3-((5-(2-(2-aminopyridin-3-yl)-5-phenyl-3H-imidazo[4,5-b]pyridin-3-yl)-6-methylpyridin-2-yl)carbamoyl)cyclopentyl)propanoic acid]

pIC50 [1]: 5.70 to 6.30
pIC50 [2]: > 4.70
SMILES: Nc1ncccc1-c1nc2ccc(-c3ccccc3)nc2n1-c1ccc(C2CCN(C[C@@H]3CCC[C@H](C(=O)O)C3)CC2)cc1 (stereo in doubt) [Compound I-192]

pIC50 [1]: 5.70 to 6.30
pIC50 [2]: > 4.70
SMILES: Cc1nc(N[C@H]2CC[C@@H](C(=O)O)CC2)ccc1-n1c(-c2cccnc2N)nc2ccc(-c3ccccc3)nc21 [Compound I-134, (1s,4s)-4-((5-(2-(2-aminopyridin-3-yl)-5-phenyl-3H-imidazo[4,5-b]pyridin-3-yl)-6-methylpyridin-2-yl)amino)cyclohexane-1-carboxylic acid]
